# Measurements as given in patent US20250214973A1, “1,4,5-TRISUBSTITUTED-1,2,3-TRIAZOLES AND USES THEREOF” (UNIVERSITY OF PUERTO RICO, priority 2022, published 2025).
# How the values were obtained:
# MDA-MB-435 [1] = test: Cell viability assay (MTT); format: cell-based, human; details: for GI50: MTT, 72 hrs, read-out: GI50 MDA-MB-435; for GI50 / effect on viability of MDA-MB-435: 0-1000 nM; for effect on viability of MDA-MB-435: 72 h
# Method: Cells plated at equal density were treated at 500 nM of compounds. After 72 hours, cell viability was measured by a MTT assay. n=3; * p<0.05, ** p<0.01, *** p<0.001.
# (§1) Cells plated at equal density were treated at 250 nM of 4c at 250 nM.
# (§2) Data from 3 biologic replicates each with 2 technical replicates. Four parameter dose-response curves generated using GraphPad Prism are shown.
# […]. GI50 was calculated using Graph pad Prism.
# (§3) […] Using CellTiter 96 Non-Radioactive Cell Proliferation Assay (Promega, Corp.) according to manufactures' instructions, formazan was used as an indicator of viable cells at an absorbance 570 nm in a Tecan Microplate Reader M100. Data was calculated as fold change from vehicle and fitted using the 4′parameter logic nonlinear regression model in GraphPad Prism software. (n=3 biologic replicates: with 3 technical replicates each).
# A range of compounds were tested by MTT assays for cell viability in MDA-MB-231 triple negative breast cancer (TNBC) cells and MDA-MB-435 HER2++ cancer cells. […].
# MDA-MB-231 [2] = test: Initial screening, inhibition of migration (wound gap); format: cell-based; details: Homo sapiens; for inhibition at 0.5 µM: read-out: Inh. of migration (converted)
# Method: In addition, the inhibition of migration of MDA-MB-231 was determined via the following procedure:
# Prior to assays, cells were grown until 80-90% confluence was observed. We used a 75 cm^2 flask for 2.6×10^5 cells/mL in 10 mL and for a 25 cm^2 flask 1.44×10^5 cells/mL in 5 mL. The cells were washed with PBS to remove all traces of FBS. We added 2 mL for a 25 cm^2 flasks or 4 mL for a 75 cm^2 flasks trypsin, and incubated 5-10 min at 37° C. At the end of the incubation time, cells were re-suspended and counted with hemocytometer using 1:2 dilutions with Trypan blue. Subsequently, cell viability was calculated. In a 12 well tissue culture plate, we used the plastic pattern to draw a fine space with a fine marker on the bottom of the plate. Cells were seeded at 1.5-2.2×10^5 cells/mL in 1 mL and incubated for 24 h. Cells were then rinsed with PBS and incubated in starving media (0.5% FBS) overnight. All controls and drugs were tested in triplicate. The negative control for each drug was prepared according to the drug's DMSO concentration. […] The wound was made using a sterile pipette tip of 200 μL. Cells were then rinsed very gently with media without FBS and media with negative controls was added. After a 24 h incubation, the gap distance was evaluated using the software Lumera Infinity Analyze 6.4.0. Pictures were taken at 0, 8, 12 and 24 h using a 10× objective in an Inverted Laboratory Microscope Leica DM IL LED, and an Infinity1-3 3.1 Megapixel USB 2.0 camera CMOS. The percentage of migration was calculated using the following formula: […]
# MDA-MB-231 [3] = test: Initial screening, SRB assay GI50; format: cell-based; details: Homo sapiens, 48 hrs
# Method: (§4) For initial screening, the GIso of compounds 4a-4h in the cell lines MDA-MB-231, MDA-MB-435 and MCF-7 was determined via the SRB-assay for 48 hrs as follows:
# (§5) A stock solution of compounds was prepared at 50 mM in 100% DMSO. For cells preparation, a flask of 75 cm^2 or 25 cm^2 were used for 2.6×10^5 cells/mL or 1.44×10^5 cells/mL, respectively, with an 80-90% of confluence. Cells were washed with PBS and trypsinized. The concentration of cells was determined using a 1:2 dilutions with Trypan Blue and a hemocytometer. After cell count, the concentration was adjusted to have a 7.0-10.0×10^4 cells/mL. Approximately 100 μL of cells suspension, compounds, control positive and control negative were added in triplicates to a 96 well plate. Positive control used was doxorubicin, and the negative control was DMSO 0.1%. All compounds (4a-h) at 50, 25, 12.5, 6.3, and 1.6 μM were incubated with cells at 37° C. for 48 hrs. For fixation, cold TCA 50% was used and incubated at 4° C. for 1 h. Wells were washed and dried prior to tincture with 100 μL of SRB 0.4%. To remove excess of SRB, acetic acid was used. For analysis, TRIS-BASE Solution (pH=10.5) was used and shaken prior to reading using an ELISA reader at 540 nm and the software SoftMax Pro 4.8. For each compound, 50% growth inhibition (GI50) was calculated from Sigmoidal dose-response curves (variable-slope) that were generated with data obtained from experiments carried out in triplicates (GI50 values were generated with GraphPad Prism V. 6.02, GraphPad Software, Inc.).
# MCF-7 = test: Initial screening, SRB assay GI50; format: cell-based; details: Homo sapiens, MCF7, 48 hrs
# Method: as §4, §5
# MDA-MB-435 [4] = test: Initial screening, SRB assay GI50; format: cell-based; details: Homo sapiens, 48 hrs, read-out: MDA-MB435 GI50
# Method: as §4, §5
# MDA-MB-231 [5] = test: Cell viability assay (MTT); format: cell-based; details: Homo sapiens; for inhibition at […]: MDA-MB-231, 250 nM for 48 hours (footnote a; title says 500 nM), read-out: % growth inhibition MDA-MB-231
# Method: Cells plated at equal density were treated at 500 nM of compounds. […]
# as §1, §2
# Cell viability relative to vehicle (100%) is shown.
# as §3
# A range of compounds were tested by MTT assays for cell viability in MDA-MB-231 triple negative breast cancer (TNBC) cells and MDA-MB-435 HER2++ cancer cells.
# Rac = Rac activation pulldown (GST-CRIB of PAK) in MDA-MB-435 cells; format: cell-based, human; details: 24 hours
# Source text: (§6) Cells were lysed and equal amounts of proteins were subjected to pull-down assays using a GST-fusion protein of the Cdc42-rac interactive binding (CRIB) domain of P21-activated kinase (PAK). The pulldowns of Rac.GTP and whole cell lysates were western blotted with a pan Rac1/2/3 antibody.
# as §6
# Vav2 binding to Rac1 = target: T1, Vav2 binding to Rac1 (Homo sapiens, UniProt P63000, G15A); test: Rac1 GEF assay, Rac1(G15A) pulldown; details: 8 μM, MDA-MB-231 lysates
# T1 construct: purchased Cell Biolabs, San Diego; CA; host or cells: Vav2 from MDA-MB-231 cell lysate
# Method: GST-Rac1 (G15A) beads were pre-incubated with vehicle (0.1% DMSO), or 8 μM EHop-016, or 250 nM Compound 4c for 1 hour followed by incubation with MDA-MB-231 cell lysates (equal total protein). Representative Western blot for Rac1(G15A) or pulldowns immunostained for Vav2 is shown (n=3).
# MDA-MB-231 cells in culture medium were lysed in 1% Triton X-100, 20 mM HEPES, pH 7.4, 150 mM NaCl, 5 mm MgCl2, and protease inhibitors and processed. Equal amounts of protein from cleared lysates were incubated for 1 h at 4° C. with glutathione-agarose beads conjugated to GST-Rac1(G15A) nucleotide-free mutant (Cell Biolabs, San Diego. CA) that were preincubated (for 1 h) with vehicle or 8 μm EHop-016 or 0.25 μM Compound 4c. The beads were washed, and the lysates and pull-downs were immunoblotted for Tiam-1, Trio, Ect2, p-REX, or Vav2.
SMILES,GI50 (MDA-MB-231 [3]),GI50 (MCF-7),GI50 (MDA-MB-435 [4]),"GI50 (MDA-MB-435 [1]; Homo sapiens, MDA-MB-435)",inhibition at 0.5 µM (MDA-MB-231 [2]),inhibition at […] (MDA-MB-231 [5]),effect on viability of MDA-MB-435 (MDA-MB-435 [1]),other results
"CCn1c2ccccc2c2cc(-n3nnc(C(O)c4ccco4)c3-c3ccccc3)ccc21 (centres unmarked) [Compound 4a, (1-(9-ethyl-9H-carbazol-3-yl)-5-phenyl-1H-1,2,3-triazol-4-yl) (furan-2-yl) methanol]",17.5 µM,20.6 µM,0.36 µM,,,,,"cytotoxicity at 0.5 µM (MDA-MB-435 [1]; Homo sapiens, MDA-MB-435, 500 nM, 72 hours, read-out: decrease in cell viability, MDA-MB-435): ~80%; inhibition at 6.6 µM (MDA-MB-231 [2]; at 6.6 μM, read-out: Inh. of migration): 55 ± 13.6%"
"CCn1c2ccccc2c2cc(-n3nnc(C(O)c4cccs4)c3-c3ccccc3)ccc21 (centres unmarked) [Compound 4d, (1-(9-ethyl-9H-carbazol-3-yl)-5-phenyl-1H-1,2,3-triazol-4-yl) (thiophen-2-yl) methanol]",20.4 µM,12 µM,19.6 µM,,8.7%,,,"inhibition at 4.1 µM (MDA-MB-231 [2]; at 4.1 μM, read-out: Inh. of migration): 57.5 ± 10.6%"
"CCn1c2ccccc2c2cc(-n3nnc(C#N)c3-c3ccccc3)ccc21 [Compound 5, 1-(9-ethyl-9H-carbazol-3-yl)-5-phenyl-1H-1,2,3-triazole-4-carbonitrile]",,,,0.045 µM,,46%,,"cytotoxicity at […] (MDA-MB-231 [5]; 250 nM, 48h, text prints MDA-MB-435 TNBC, read-out: inhibition of cell viability): 50%; cytotoxicity relative to MBQ-167 (MDA-MB-435 [1]; MDA-MB-435, 72 h GI50): ~3 ×; % Rac inhibition (Rac; 10 nM): ~30%; % Rac inhibition (Rac; 50 nM): > 90%; % Rac inhibition (Rac; 100 nM): > 90%"
"CCn1c2ccccc2c2cc(-n3nnc(C(=O)O)c3-c3ccccc3)ccc21 [Compound 7, 1-(9-Ethyl-9H-carbazol-3-yl)-5-phenyl-1H-1,2,3-triazole-4-carboxylic acid]",,,,,,29%,reduced the viability,
"CCn1c2ccccc2c2cc(-n3nnc(C(=O)N4CCOCC4)c3-c3ccccc3)ccc21 [Compound 8, (1-(9-ethyl-9H-carbazol-3-yl)-5-phenyl-1H-1,2,3-triazol-4-yl) (morpholino) methanone]",,,,~1 µM,,-11%,did not have an effect,% Rac inhibition (Rac; 250 nM): 250 nM : <20%
"CCn1c2ccccc2c2cc(-n3nnc(C(=O)NCCCN4CCOCC4)c3-c3ccccc3)ccc21 [Compound 9, 1-(9-ethyl-9H-carbazol-3-yl)-N-(3-morpholinopropyl)-5-phenyl-1H-1,2,3-triazole-4-carboxamide]",,,,> 10 µM,,13%,reduced the viability,% Rac inhibition (Rac; 250 nM): 250 nM : <20%
"CCn1c2ccccc2c2cc(Nc3ccnc(NCCCN4CCOCC4)n3)ccc21 [EHop-016, reference compound]",,,,,,,,inhibition of Vav2 binding to Rac1 (Vav2 binding to Rac1): ~80%

# Further lines, with some results ahead:
GI50 (MDA-MB-231 [3]),GI50 (MCF-7),GI50 (MDA-MB-435 [4]),"GI50 (MDA-MB-435 [1]; Homo sapiens, MDA-MB-435)",SMILES,inhibition at 0.5 µM (MDA-MB-231 [2]),inhibition at […] (MDA-MB-231 [5]),effect on viability of MDA-MB-435 (MDA-MB-435 [1]),other results
26.2 µM,10.6 µM,32.9 µM,,"CCn1c2ccccc2c2cc(-n3nnc(C(O)c4ccc(OC)cc4)c3-c3ccccc3)ccc21 (centres unmarked) [Compound 4e, (1-(9-ethyl-9H-carbazol-3-yl)-5-phenyl-1H-1,2,3-triazol-4-yl) (4-methoxyphenyl) methanol]",36.1%,,,"inhibition at 5.3 µM (MDA-MB-231 [2]; at 5.3 μM, read-out: Inh. of migration): 57 ± 12.3%"
11.2 µM,9.7 µM,7.5 µM,,"CCn1c2ccccc2c2cc(-n3nnc(C(O)c4ccc([N+](=O)[O-])cc4)c3-c3ccccc3)ccc21 (centres unmarked) [Compound 4f, (1-(9-ethyl-9H-carbazol-3-yl)-5-phenyl-1H-1,2,3-triazol-4-yl) (4-nitrophenyl) methanol]",22.1%,,,"inhibition at 2.2 µM (MDA-MB-231 [2]; at 2.2 μM, read-out: Inh. of migration): 61.1 ± 6.12%"
7.9 µM,13.5 µM,2.2 µM,,"CCn1c2ccccc2c2cc(-n3nnc(C(O)c4ccc(C)cc4)c3-c3ccccc3)ccc21 (centres unmarked) [Compound 4g, (1-(9-ethyl-9H-carbazol-3-yl)-5-phenyl-1H-1,2,3-triazol-4-yl) (p-tolyl) methanol]",,,,"inhibition at 1.6 µM (MDA-MB-231 [2]; at 1.6 μM, read-out: Inh. of migration): 15.1 ± 10.7%"
24.3 µM,9.6 µM,22.6 µM,,"CCn1c2ccccc2c2cc(-n3nnc(C(O)c4ccccc4)c3-c3ccccc3)ccc21 (centres unmarked) [Compound 4h, (1-(9-ethyl-9H-carbazol-3-yl)-5-phenyl-1H-1,2,3-triazol-4-yl) (phenyl) methanol]",11.1%,,,"inhibition at 4.9 µM (MDA-MB-231 [2]; at 4.9 μM, read-out: Inh. of migration): 65.4 ± 11.9%"
,,,~5 µM,"CCOC(=O)c1nnn(-c2ccc3c(c2)c2ccccc2n3CC)c1-c1ccccc1 [Compound 6, Ethyl 1-(9-ethyl-9H-carbazol-3-yl)-5-phenyl-1H-1,2,3-triazole-4-carboxylate]",,32%,reduced the viability,
0.915 µM,0.19 µM,23.3 µM,,"CCn1c2ccccc2c2cc(-n3nnc(C(=O)c4cccs4)c3-c3ccccc3)ccc21 [Compound 10, (1-(9-Ethyl-9H-carbazol-3-yl)-5-phenyl-1H-[1,2,3]triazol-4-yl)-thiophen-2-yl-methanone]",,,,
